Laboratory results reported in US20200297722A1, “pH-Modulated Formulations for Pulmonary Delivery” (GRIFOLS, S.A., priority 2009, published 2020).

Legend:
[1] = cited from earlier work
[2] = aqueous solubility of gallium as a function of pH; assay type: physicochemical
Excerpt: Gallium is a semi-metallic element in group 13 (IIIa) of the periodic table. Gallium is trivalent in aqueous solution (Ga^3+). The free hydrated ion Ga^3+hydrolyzes nearly completely at pH values close to neutral, readily forming highly insoluble amorphous Ga(OH)3. In addition to precipitating as hydroxides and oxyhydroxides , Ga will also form highly insoluble phosphates at pH values close to neutral. L R Bernstein (1998) provides a brief review of the solution chemistry of gallium. […] At low and high pH values, gallium has many orders of magnitude greater solubility. […] This difference in solubility can be exploited in an inhalation product by formulating gallium or its salts (e.g., gallium nitrate) at a very low or very high pH.

[3] = calculated gallium concentration and precipitation in lung fluid after one AERx strip; design: species or system human
Excerpt: Thus, one would expect that there would be a depot-like effect in the lung in terms of the release of gallium from the solid state over time. This would result in a delayed absorption profile of gallium into the bloodstream, with a reduced CMAX and delayed TMAX. This would also reduce or eliminate side effects resulting from high systemic concentrations.

[4] = pH 7.4 and 25° C.; cited from earlier work
[5] = in lung fluid at ~pH 7.4, assumed deposition

Structure (SMILES) | solubility in water [1] | times greater solubility than at pH 7.4 ([2]; pH 2 versus pH 7.4) | times greater solubility than at pH 7.4 ([2]; pH 10 versus pH 7.4) [times] | resulting gallium concentration in lung fluid ([3]; assumed: 25 μL of pH 2 solution equilibrated to ~pH 7.4 in 20 mL lung fluid) [µM] | excess of concentration over equilibrium solubility at pH 7.4 ([3]; assumed: 25 μL of pH 2 solution in 20 mL lung fluid) [fold] | gallium likely to precipitate out of solution [3, 5] [%] | gallium remaining soluble [3, 5] [%] | total aqueous solubility of gallium [4] [µM]
NC[C@H]1O[C@H](O[C@H]2[C@H](O)[C@@H](O[C@H]3O[C@H](CO)[C@@H](O)[C@H](N)[C@H]3O)[C@H](N)C[C@@H]2N)[C@H](N)C[C@@H]1O [tobramycin] | very soluble in water | – | – | – | – | – | – | –
[Ga] [gallium] | – | ~10,000 times | ~500 | ~12.5 | ~12.5 | 96 | 8 | ~1
